Consider 4 molecules from ChEMBL document CHEMBL1201862, “PubChem BioAssay data set” (2004).

The target of experiment [1] is T1, Neuropeptides B/W receptor type 1 (Homo sapiens, UniProt P48145). Nature of the experiment: Fluorescence-based dose response cell-based high throughput screening assay to identify antagonists of the G-protein coupled receptor 7 (GPR7). [Related pubchem assays: 1952 (Screening assay (GPR7 antagonists).), 1880 (Summary AID.)]. Format: functional.
Experiment [2] has as its target T2, Melanin-concentrating hormone receptor 1 (Homo sapiens, UniProt Q99705). In words: Fluorescence-based counterscreen for antagonists of the G-protein coupled receptor 7 (GPR7): cell-based high throughput dose response assay to identify antagonists of the melanin-concentrating hormone receptor 1 (MCHR1). Format: functional. (In general: The purpose of a counterscreen is to sort out artefacts and off-target activity.)

In experiment [3] the target is T2, Melanin-concentrating hormone receptor 1. In words: Late-stage fluorescence-based counterscreen for antagonists of the G-protein coupled receptor 7 (GPR7): cell-based dose response assay to identify antagonists of the melanin-concentrating hormone receptor 1 (MCHR1). [Related pubchem assays (depositor defined):AID1861, AID1880, AID1952, AID2148, AID2251, AID2257, AID485339]. The experiment is classed as functional.

In experiment [4] the target is T1, Neuropeptides B/W receptor type 1. In words: human NPBW1 receptor blockade, IC50 – cell-based, fluorescence, dose response, late-stage follow-up (AID 463251). The experiment is classed as functional.
Experiment [5] deals with Eukaryotic translation initiation factor 4H (Homo sapiens, UniProt Q15056). Nature of the experiment: inhibitors of translation initiation factor eIF4H – SAR follow-up (AID 435011). The experiment is classed as functional.
Experiment [6] has as its target Polyadenylate-binding protein 1 (Homo sapiens, UniProt P11940). Nature of the experiment: PABP inhibition in translation initiation, SAR follow-up (AID 435018). The experiment is classed as functional.
In experiment [7] the target is Glyceraldehyde-3-phosphate dehydrogenase (Homo sapiens, UniProt P04406).
Experiment [8] deals with Tyrosine-protein phosphatase non-receptor type 12 (Homo sapiens, UniProt Q05209). In words: SAR Selectivity Analysis of small molecule inhibitors of PEST using pCAP in a fluorescence assay. [Related pubchem assays (depositor defined):AID1779, AID1784, AID2135]. The experiment is classed as functional.
Experiment [9] deals with T3, Tyrosine-protein phosphatase non-receptor type 22 (Homo sapiens, UniProt Q9Y2R2).
T3 sequence (Q9Y2R2 whole entry): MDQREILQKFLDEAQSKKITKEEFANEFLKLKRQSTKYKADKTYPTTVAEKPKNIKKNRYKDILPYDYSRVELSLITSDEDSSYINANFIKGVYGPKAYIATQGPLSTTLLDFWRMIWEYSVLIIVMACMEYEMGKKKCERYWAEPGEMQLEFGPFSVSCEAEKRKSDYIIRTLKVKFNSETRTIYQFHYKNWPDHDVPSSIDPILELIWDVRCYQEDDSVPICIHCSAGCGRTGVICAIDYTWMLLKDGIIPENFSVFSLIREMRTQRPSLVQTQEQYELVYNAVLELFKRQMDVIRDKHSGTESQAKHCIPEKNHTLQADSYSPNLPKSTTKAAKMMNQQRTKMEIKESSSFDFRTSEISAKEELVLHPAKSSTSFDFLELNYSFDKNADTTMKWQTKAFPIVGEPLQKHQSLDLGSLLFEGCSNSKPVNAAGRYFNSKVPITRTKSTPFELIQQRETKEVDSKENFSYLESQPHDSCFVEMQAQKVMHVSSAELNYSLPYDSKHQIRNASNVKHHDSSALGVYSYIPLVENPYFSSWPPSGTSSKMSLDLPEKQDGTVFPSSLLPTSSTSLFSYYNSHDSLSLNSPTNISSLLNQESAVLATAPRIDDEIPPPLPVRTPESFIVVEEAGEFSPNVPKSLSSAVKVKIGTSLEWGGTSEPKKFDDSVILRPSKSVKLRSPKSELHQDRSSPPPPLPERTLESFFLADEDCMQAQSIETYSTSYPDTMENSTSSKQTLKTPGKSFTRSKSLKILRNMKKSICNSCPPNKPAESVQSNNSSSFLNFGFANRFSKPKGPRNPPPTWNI
Nature of the experiment: SAR LYP1 Fluorescent Assay using OMFP substrate for In Vitro dose response studies - Set 3. [Related pubchem assays (depositor defined):AID1779, AID1784, AID2140, AID2686]. Format: functional.

In experiment [10] the target is T4, Tyrosine-protein phosphatase non-receptor type 7 (Homo sapiens, UniProt P35236).
T4 sequence (P35236 whole entry): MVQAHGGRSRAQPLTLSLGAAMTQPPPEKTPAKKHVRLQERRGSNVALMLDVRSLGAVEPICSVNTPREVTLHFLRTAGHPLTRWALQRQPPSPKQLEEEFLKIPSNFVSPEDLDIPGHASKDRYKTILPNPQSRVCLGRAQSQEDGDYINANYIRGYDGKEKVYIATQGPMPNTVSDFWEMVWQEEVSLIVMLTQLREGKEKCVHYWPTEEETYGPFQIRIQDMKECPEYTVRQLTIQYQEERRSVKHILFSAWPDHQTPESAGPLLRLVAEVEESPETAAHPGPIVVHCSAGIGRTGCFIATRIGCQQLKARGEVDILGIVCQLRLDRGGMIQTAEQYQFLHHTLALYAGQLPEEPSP
Nature of the experiment: inhibition of hematopoietic tyrosine phosphatase HePTP – biochemical, set 2, SAR follow-up (AID 449736). The experiment is classed as functional.

In experiment [11] the target is T3, Tyrosine-protein phosphatase non-receptor type 22. Nature of the experiment: inhibition of lymphoid tyrosine phosphatase LYP – biochemical, pCAP fluorogenic substrate, fluorescence, set 3, SAR follow-up (AID 449727). The experiment is classed as functional.
The target of experiment [12] is T4, Tyrosine-protein phosphatase non-receptor type 7. The experiment is classed as functional.
Experiment [13] deals with T5, Dual specificity protein phosphatase 6 (Rattus norvegicus, UniProt Q64346).
T5 sequence (Q64346 whole entry): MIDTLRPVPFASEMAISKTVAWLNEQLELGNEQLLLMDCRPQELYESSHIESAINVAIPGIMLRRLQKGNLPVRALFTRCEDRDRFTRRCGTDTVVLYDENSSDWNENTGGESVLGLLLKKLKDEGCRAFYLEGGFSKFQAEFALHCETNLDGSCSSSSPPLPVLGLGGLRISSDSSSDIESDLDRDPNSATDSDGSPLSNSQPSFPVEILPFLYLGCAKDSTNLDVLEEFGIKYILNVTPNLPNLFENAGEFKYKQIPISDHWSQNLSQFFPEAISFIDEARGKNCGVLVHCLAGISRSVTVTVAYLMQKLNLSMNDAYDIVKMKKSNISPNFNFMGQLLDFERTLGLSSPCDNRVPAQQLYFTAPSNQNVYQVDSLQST

Experiment [14] concerns the target T6, Dual specificity protein phosphatase 3 (Homo sapiens, UniProt P51452). Nature of the experiment: SAR VHR1 Fluorescent Assay for In Vitro dose response studies. [Related pubchem assays (depositor defined):AID1654, AID1661, AID1878, AID1992, AID2004, AID2070, AID2085]. Format: functional.
For experiment [15], the target named is T6, Dual specificity protein phosphatase 3. Nature of the experiment: MOA VHR1 Fluorescent secondary assay for identification of redox-state modulating compounds. [Related pubchem assays (depositor defined):AID1654, AID1661, AID1878, AID1957].
Experiment [16] addresses T4, Tyrosine-protein phosphatase non-receptor type 7. Nature of the experiment: redox-active compounds inhibiting HePTP phosphatase – biochemical, fluorescence, mechanism study (AID 2068). The experiment is classed as functional.
For experiment [17], the target named is T5, Dual specificity protein phosphatase 6. The experiment is classed as functional.

One may read the IC50 as the point on the concentration scale where inhibition reaches its midpoint.

Molecules are shown by their SMILES. Active and inactive are the calls of the source. Rule as the data show it, for most assays here: actives have a measured IC50 and inactives only a lower limit.

T2 sequence (Q99705 whole entry): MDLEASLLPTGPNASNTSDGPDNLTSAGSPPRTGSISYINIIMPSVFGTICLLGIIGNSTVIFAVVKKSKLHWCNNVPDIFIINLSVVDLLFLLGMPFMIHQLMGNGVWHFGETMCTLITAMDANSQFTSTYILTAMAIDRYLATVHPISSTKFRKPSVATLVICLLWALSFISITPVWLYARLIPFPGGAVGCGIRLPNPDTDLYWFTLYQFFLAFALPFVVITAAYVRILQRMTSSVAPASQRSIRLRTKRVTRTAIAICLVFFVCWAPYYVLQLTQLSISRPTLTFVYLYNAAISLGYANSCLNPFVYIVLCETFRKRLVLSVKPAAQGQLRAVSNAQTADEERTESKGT
Chain of Glyceraldehyde-3-phosphate dehydrogenase (P04406 whole entry): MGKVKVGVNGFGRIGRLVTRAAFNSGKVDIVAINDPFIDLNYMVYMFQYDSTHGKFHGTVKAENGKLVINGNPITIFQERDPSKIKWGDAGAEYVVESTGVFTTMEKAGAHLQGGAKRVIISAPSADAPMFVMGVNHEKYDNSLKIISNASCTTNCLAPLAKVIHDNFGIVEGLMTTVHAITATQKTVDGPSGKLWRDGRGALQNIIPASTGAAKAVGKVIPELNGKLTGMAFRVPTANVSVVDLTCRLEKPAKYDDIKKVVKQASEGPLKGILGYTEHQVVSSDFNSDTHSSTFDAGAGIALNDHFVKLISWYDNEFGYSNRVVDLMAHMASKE
T1 sequence (P48145 whole entry): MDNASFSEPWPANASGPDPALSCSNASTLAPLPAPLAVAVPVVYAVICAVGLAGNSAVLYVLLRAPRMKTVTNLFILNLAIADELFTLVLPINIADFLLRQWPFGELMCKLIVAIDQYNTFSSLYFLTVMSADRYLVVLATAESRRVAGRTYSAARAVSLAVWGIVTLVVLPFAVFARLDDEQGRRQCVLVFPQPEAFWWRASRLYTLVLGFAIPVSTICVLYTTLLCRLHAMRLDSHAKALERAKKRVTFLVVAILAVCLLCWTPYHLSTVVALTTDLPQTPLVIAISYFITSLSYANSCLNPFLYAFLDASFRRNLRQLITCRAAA
T6 sequence (P51452 whole entry): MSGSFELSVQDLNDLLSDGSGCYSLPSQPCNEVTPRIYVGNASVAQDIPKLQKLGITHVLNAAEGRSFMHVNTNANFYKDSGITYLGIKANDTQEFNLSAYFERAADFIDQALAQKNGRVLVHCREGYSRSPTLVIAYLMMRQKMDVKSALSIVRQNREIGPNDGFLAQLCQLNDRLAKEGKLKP
Chain of Tyrosine-protein phosphatase non-receptor type 12 (Q05209 whole entry): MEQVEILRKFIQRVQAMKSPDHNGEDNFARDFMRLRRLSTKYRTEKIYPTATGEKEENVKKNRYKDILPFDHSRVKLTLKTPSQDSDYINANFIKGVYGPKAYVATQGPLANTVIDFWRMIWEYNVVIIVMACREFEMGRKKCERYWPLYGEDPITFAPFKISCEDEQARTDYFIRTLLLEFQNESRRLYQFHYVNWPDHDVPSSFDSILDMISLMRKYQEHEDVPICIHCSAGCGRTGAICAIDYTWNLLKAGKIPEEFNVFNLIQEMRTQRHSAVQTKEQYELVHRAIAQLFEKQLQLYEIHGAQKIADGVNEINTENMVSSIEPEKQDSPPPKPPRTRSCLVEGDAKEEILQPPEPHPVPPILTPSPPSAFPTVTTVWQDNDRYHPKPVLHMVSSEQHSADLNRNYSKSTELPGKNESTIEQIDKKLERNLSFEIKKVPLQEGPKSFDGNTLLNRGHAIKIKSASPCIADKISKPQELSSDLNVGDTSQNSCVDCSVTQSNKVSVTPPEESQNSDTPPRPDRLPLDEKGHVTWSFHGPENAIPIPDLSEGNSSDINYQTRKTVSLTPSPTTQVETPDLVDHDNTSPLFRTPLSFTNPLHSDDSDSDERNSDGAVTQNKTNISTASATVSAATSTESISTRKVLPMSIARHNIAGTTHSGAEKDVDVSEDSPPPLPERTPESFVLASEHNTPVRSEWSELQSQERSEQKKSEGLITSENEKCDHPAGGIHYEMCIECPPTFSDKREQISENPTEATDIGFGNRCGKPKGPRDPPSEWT
Chain of Polyadenylate-binding protein 1 (P11940 whole entry): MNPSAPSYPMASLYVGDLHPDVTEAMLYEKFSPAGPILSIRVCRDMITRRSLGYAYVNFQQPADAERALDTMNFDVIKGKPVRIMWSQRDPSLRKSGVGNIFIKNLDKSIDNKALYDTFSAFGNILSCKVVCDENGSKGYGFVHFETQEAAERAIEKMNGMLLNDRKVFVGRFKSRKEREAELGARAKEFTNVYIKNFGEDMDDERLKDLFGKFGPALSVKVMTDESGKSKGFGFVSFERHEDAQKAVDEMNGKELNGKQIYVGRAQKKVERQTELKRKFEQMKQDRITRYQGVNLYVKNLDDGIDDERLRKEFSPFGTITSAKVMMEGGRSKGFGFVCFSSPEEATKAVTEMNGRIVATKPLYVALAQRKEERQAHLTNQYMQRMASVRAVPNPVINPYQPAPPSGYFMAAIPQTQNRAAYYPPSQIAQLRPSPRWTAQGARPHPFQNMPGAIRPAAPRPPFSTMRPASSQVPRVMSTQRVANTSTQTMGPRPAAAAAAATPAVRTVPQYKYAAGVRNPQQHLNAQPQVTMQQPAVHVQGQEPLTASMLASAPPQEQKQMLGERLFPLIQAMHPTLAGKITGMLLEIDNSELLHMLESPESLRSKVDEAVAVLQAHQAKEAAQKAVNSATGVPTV

As to `O=C(NCCCN1CCOCC1)c1ccc2c(c1)N(Cc1c(F)cccc1Cl)C(=O)c1ccccc1S2`, the IC50 was 6.45 µM (active) in experiment [1], 16.2 µM (not active) in [2], > 20 µM (inactive) in [3] and > 20 µM (inactive) in [4].
Consider `Cn1c(CC(=O)Nc2ccc(F)cc2)c(Sc2ccccc2)c2ccccc21`, for which the results for the IC50 in experiment [5] and in experiment [6] were 44.5 µM (active) and > 100 µM (inactive), respectively.
As for `O=C(O)CN1C(=O)/C(=C\Nc2ccccc2)SC1=S`, the 50% inhibitory concentration (IC50) in experiment [7] is > 100 µM (not active); in experiment [8], 66.4 µM (active); in [9] it was > 100 µM (inactive); in [10], > 100 µM (inactive); in [11], > 100 µM (inactive).
With `O=c1/c(=C/c2ccccc2Cl)sc2nc3cc(Br)cnc3n12`, the IC50 in [12] was > 100 µM (not active); in experiment [7], > 100 µM (not active); in experiment [13], > 100 µM (inactive); in [14], > 100 µM (inactive); in [15] it was 0.181 µM (active); in experiment [16], 0.18 µM (active). Besides, the IC50 in [17] is > 100 µM (inactive).
